Starred links: 1 amine or outer side, 2 acyl side, 3 side chain; linkers in the order of their positions; H or OH if unused. Non-standard residues stand in square brackets, D forms with d. Residues, ends and D or L forms follow the SMILES beside them. *: point of attachment. Gly(N-(3-decanoyloxypropyl)) = CCCCCCCCCC(=O)OCCCNCC(=O)O; N(3-lauroyloxypropyl)Gly = CCCCCCCCCCCC(=O)OCCCNCC(=O)O; N(2-decanoyloxyethyl)Gly = CCCCCCCCCC(=O)OCCNCC(=O)O; Gly(N-(CH2)3O-octanoyl) = CCCCCCCC(=O)OCCCNCC(=O)O; N(3-imidazol-1-ylpropyl)Gly = O=C(O)CNCCCn1ccnc1; Gly(N-3-morpholinopropyl) = O=C(O)CNCCCN1CCOCC1; N(2-ethylhexyl)Gly = CCCCC(CC)CNCC(=O)O; X1 = CCCCC(CC)CSSCCN(CC(=O)[*:2])[*:1]; N(CH(CH2OH)2)Gly = O=C(O)CNC(CO)CO; N(octyl)Gly = CCCCCCCCNCC(=O)O; For = O=C*

One data set deals with hEPO. Nature of the data set: Quantification of hEPO in serum after IV injection of mRNA (Human EPO ELISA). The conditions noted are these: Balb/c mice, 2.5 μg mRNA IV, serum after 6 hours. In kind it is in vivo. On the procedure:
Balb/c mice were treated with 2.5 μg of mRNA coding for human erythropoiten via IV injection according to a similar method as in Example 4. hEPO protein in the serum was quantified after 6 hours using the Human EPO ELISA Kit from Invitrogen (catalog #BMS2035-2). Wash buffer (PBS with 1% tween 20) and assay buffer (PBS with 1% tween 20, 10% BSA) were prepared from a 20× concentrate with milli-Q water. Serum samples were diluted with PBS according to expected EPO concentration, with a 50× dilution for low expression samples and up to a 30,000× dilution for samples expected to have high expression. Microwell strips were washed in a plate washer with wash buffer and tapped on an absorbent pad to remove excess buffer. 100 μL of sample diluent were added to each well that will be used for the standard curve. 50 μL of sample diluent was added to each sample well.
The standard curve was prepared by reconstituting the human erythropoietin standard by adding the volume of water listed on the vial label. Standard was swirled gently and allowed to reconstitute for 10 minutes prior to use, then 100 μL is added to standard wells and mixed well. 100 μL from standard wells were then transferred to sample wells and mixed well. This was repeated 5 times to produce 2 columns of standard dilutions from 100 to 1.6 mIU/mL. 100 μL was discarded from the last microwells. The final 2 wells contained 100 μL of sample diluent and served as a blank. An external standard was also included to facilitate a mIU/mL conversion to ng/mL. The same serial dilution method was repeated starting with the external standard at 6.25 ng/mL. Once the standards were added, 50 μL of each sample was added in duplicate to the sample wells. Next, the biotin-conjugate was prepared by diluting 1:100 in assay buffer. 50 μL of biotin-conjugate was added to all wells and the plate was covered with a plate seal and shaken at room temperature for 1 hour. During the last few minutes of shaking, streptavidin-HRP was prepared by diluting 1:100 in assay buffer. The plate was washed on a plate washer and tapped on an absorbent pad to remove remaining wash buffer.
100 μL of the diluted streptavidin-HRP was added to each well and the plate was sealed and shaken for 15 minutes at room temperature. After 15 minutes, the plate seal was removed and the plate was washed on a plate washer and remaining wash buffer tapped out on an absorbent pad. 100 μL of TMB substrate was added to all wells and the plate was incubated for 10 minutes at room temperature out of direct light. Color development was checked every few minutes and the assay was stopped when the highest standard was dark blue. The reaction was stopped by pipetting 100 μL of stop solution into each well. Immediately after stop solution was added, the plate was gently tapped to ensure the solution was mixed. Absorbance was then read at 450 nm for each well. A standard curve was plotted for both the kit-provided standards (mIU/mL) and the external standard (ng/mL) and fit using Prism. Sample absorbances that fell within the standard curve were interpolated and adjusted for dilution (including a 2× assay dilution). Samples that were not within the standard curve were repeated at an adjusted dilution.
For orientation: An ELISA detects its analyte on a solid surface through an enzyme-linked reagent.

A further data set has as its system luciferase. The data set can be described thus: Luciferase expression after local (intramuscular or subcutaneous) administration of mRNA. In kind it is in vivo. The conditions noted are these: mRNA 0.01 mpk, 6 hours; for IM Flux: intramuscular; for SC Flux: subcutaneous. On the procedure: (§1) All animal studies were conducted under accreditation by the California State Department of Public Health and under supervision of IACUC and Veterinarian Supervision. For imaging studies, female Balb/c mice (6-8 weeks old) were obtained and acclimatized for a minimum of 3 days prior to experiments. The animals were maintained on a 12 hour light cycle in a temperature and humidity controlled room. A daily health check was performed as well as food and water check. For dosing, mice were injected with 2.5 ug fLuc mRNA-containing Nutshells intravenously in 100 μL total injection value. At 6 hours post-injection, mice were anesthetized with isoflurane, injected IP with 30 mg/mL D-luciferin at a dose of 10 μL per gram bodyweight intraperitoneally. Imaging was done 10 minutes post D-luciferin injection using an IVIS Spectrum Imaging System (Caliper Life Sciences). Immediately after in vivo imaging, mice were terminally bled by cardiac puncture and euthanized. The organs of interest were harvested, placed in black 24-well plates, and imaged. Living Image software (Perkin Elmer) was used to quantify the total photon flux in regions of interest.
Aminolipidated peptoids were also effective for local administration of mRNA through subcutaneous (S.C.) or intramuscular (I.M.) routes of administration. For these examples, mRNA was administered at a dose of 0.1 mpk for intratomoral, or 0.01 mpk for subcutaneous and intramuscular administration, and the resulting bioluminescence quantified after 6 hours according to a similar procedure as described in Example 4.

A further data set concerns mRNA. Nature of the data set: mRNA encapsulation (modified Quant-iT RiboGreen assay). In kind it is physicochemical. Particulars: for mean percent encapsulation of RNA: RiboGreen, without vs with Triton X-100; for % Encapsulation: mRNA. On the procedure: The mRNA concentration and the percentage of encapsulated mRNA were determined using fluorescent-based Quant-iT RiboGreen RNA Reagent Kit (Life Technologies, Waltham, MA) as described previously. To determine the mRNA concentration, PNPs was incubated with […] for 10 min to release entrapped mRNA, followed by addition of RiboGreen RNA reagent. The fluorescence intensity of mRNA-RiboGreen reagent complex (excitation at 485 nm and emission at 530 nm) was detected using a microplate reader. The ratio of fluorescence without and with Triton X-100 were used to calculate the percentage of encapsulated mRNA.
(§2) Degradable peptoids described herein were formulated as various formulations described in Table 3 according to the procedure described in Example 2. Particle size was characterized as described in Example 2, and […] encapsulation of mRNA was determined as described in Example 3.

The nature of data set [1]: Delivery vehicle size and polydispersity by dynamic light scattering. In kind it is physicochemical. On the procedure:
Delivery vehicles were formulated by rapid microfluidic mixing using a high throughput microfluidic system. Briefly, ethanol solutions containing peptoid, DSPC, Cholesterol, DMG-PEG2000 at weight ratio of 20:1.79:7.16:1.84, were mixed with 10 mM sodium citrate buffer (pH 5.0) containing synthesized mRNA at a ratio of 1:3 by volume. Peptoid based LNPs were subsequently dialyzed against 1-2 liters of tris-sucrose buffer (TS7, pH 7.4) overnight at 4 °C. Delivery vehicle size and polydispersity (PDI) was measured by dynamic light scattering in PBS.
as §2

Another data set has as its system firefly luciferase. The data set can be described thus: In vivo firefly luciferase expression after intravenous injection of fLuc mRNA delivery vehicles (IVIS imaging). Particulars: for Total Flux: mice, 2.5 ug fLuc mRNA intravenously, 6 hours post-injection; for Total Flux (luciferase expression): fLuc mRNA, intravenous, Balb/c mice. Further details: species or system female Balb/c mice. On the procedure:
as §1
Luciferase expression in these formulations was also determined as described in Example 4.

Setting [2] is: DLS in PBS, peptoid:DSPC:Cholesterol:DMG-PEG2000 weight ratio 20:1.79:7.16:1.84, mRNA.

In the case of `CCCCCCCCCCCC(=O)OCCCN(C=O)CC(=O)N(CCCOC(=O)CCCCCCCCCCC)CC(=O)N(CC(=O)N(CCCN1CCOCC1)CC(=O)N(CC(=O)N(CCCOC(=O)CCCCCCCCCCC)CC(=O)N(CCCOC(=O)CCCCCCCCCCC)CC(N)=O)CC(CC)CCCC)CC(CC)CCCC` (stereo not drawn) [Compound 91] (For-[N(3-lauroyloxypropyl)Gly][N(3-lauroyloxypropyl)Gly][N(2-ethylhexyl)Gly][Gly(N-3-morpholinopropyl)][N(2-ethylhexyl)Gly][N(3-lauroyloxypropyl)Gly][N(3-lauroyloxypropyl)Gly]-NH2), in the data set with hEPO, the hEPO amounted to 17.4 ng/mL. In the data set on luciferase, the “IM Flux” value is 2.44E+08 p/s and the “SC Flux” value is 4.22E+07 p/s.

On to `CCCCCCCCCC(=O)OCCCN(CC(=O)N(CC(N)=O)CC(CC)CCCC)C(=O)CN(CCCCCCCC)C(=O)CN(CC(CC)CCCC)C(=O)CN(CCCOC(=O)CCCCCCCCC)C(=O)CN(CCCCCCCC)C(=O)CNCCCn1ccnc1` (stereo not drawn) [Compound 111] (H-[N(3-imidazol-1-ylpropyl)Gly][N(octyl)Gly][Gly(N-(3-decanoyloxypropyl))][N(2-ethylhexyl)Gly][N(octyl)Gly][Gly(N-(3-decanoyloxypropyl))][N(2-ethylhexyl)Gly]-NH2), for which the “mean percent encapsulation of RNA” value in the data set with mRNA worked out at 72.3%. Moreover, in the data set on luciferase, the “IM Flux” value is listed as 4.89E+07 p/s and the “SC Flux” value was 6.25E+07 p/s. Besides, in data set [1] (setting [2]), the PDI is reported as 0.148 and the “Particle Size” value is reported as 105.5 nm. In addition, in the data set on firefly luciferase, the “Total Flux” value came to 3.16E+08 p/s.

With `CCCCCCCCCC(=O)OCCCN(CC(=O)N(CCSSCC(CC)CCCC)CC(N)=O)C(=O)CN(CCCCCCCC)C(=O)CN(CCSSCC(CC)CCCC)C(=O)CN(CCCOC(=O)CCCCCCCCC)C(=O)CN(CCCCCCCC)C(=O)CNC(CO)CO` (stereo not drawn) [Compound 129] (H-[N(CH(CH2OH)2)Gly][N(octyl)Gly][Gly(N-(3-decanoyloxypropyl))][X1][N(octyl)Gly][Gly(N-(3-decanoyloxypropyl))][X1]-NH2), in the data set with mRNA, the “mean percent encapsulation of RNA” value is recorded as 89.2%. In the data set with luciferase, the “IM Flux” value amounted to 2.00E+08 p/s and the “SC Flux” value is 3.41E+08 p/s. Further, in data set [1] (setting [2]), the PDI was 0.101 and the “Particle Size” value was determined as 61.2 nm. Besides, the “Total Flux” value with firefly luciferase is 1.06E+09 p/s.

Turning to `CCCCCCCCN(CC(=O)N(CCCOC(=O)CCCCCCC)CC(=O)N(CCSSCC(CC)CCCC)CC(=O)N(CCCCCCCC)CC(=O)N(CCCOC(=O)CCCCCCC)CC(=O)N(CCSSCC(CC)CCCC)CC(N)=O)C(=O)CNC(CO)CO` (stereo not drawn) [Compound 127] (H-[N(CH(CH2OH)2)Gly][N(octyl)Gly][Gly(N-(CH2)3O-octanoyl)][X1][N(octyl)Gly][Gly(N-(CH2)3O-octanoyl)][X1]-NH2), the “mean percent encapsulation of RNA” value in the data set on mRNA amounted to 84.2%. In addition, in the data set on luciferase, the “IM Flux” value was 3.36E+08 p/s and the “SC Flux” value is reported as 1.92E+08 p/s. For the same compound, in data set [1] (setting [2]), the PDI was 0.093 and the “Particle Size” value was determined as 84.1 nm. In addition, the “Total Flux” value with firefly luciferase worked out at 6.54E+09 p/s.

`CCCCCCCC(=O)OCCCN(CC(=O)N(CCCOC(=O)CCCCCCC)CC(=O)N(CCSSCC(CC)CCCC)CC(=O)N(CCCOC(=O)CCCCCCC)CC(=O)N(CCCOC(=O)CCCCCCC)CC(=O)N(CCSSCC(CC)CCCC)CC(N)=O)C(=O)CNC(CO)CO` (stereo not drawn) [Compound 128] (H-[N(CH(CH2OH)2)Gly][Gly(N-(CH2)3O-octanoyl)][Gly(N-(CH2)3O-octanoyl)][X1][Gly(N-(CH2)3O-octanoyl)][Gly(N-(CH2)3O-octanoyl)][X1]-NH2): the “mean percent encapsulation of RNA” value with mRNA is 89.5%. The “% Encapsulation” value in the data set on mRNA (formulation recipe D22) stood at 89.5%; in the data set with mRNA (formulation recipe R3), 89.5%; with mRNA (formulation recipe R4) it was 87.7%; in the data set on mRNA (formulation recipe R7), 92.5%; in the data set on mRNA (formulation recipe R8) it was 94.4%. The “IM Flux” value with luciferase stood at 4.20E+08 p/s. In addition, the “SC Flux” value with luciferase worked out at 6.68E+08 p/s. Moreover, in data set [1] (setting [2]), the PDI is given as 0.098. In addition, the “Particle Size” value is 62.1 nm in data set [1] (setting [2]); 62.1 nm in data set [1] (formulation recipe D22); 77.5 nm in data set [1] (formulation recipe R3); 73.6 nm in data set [1] (formulation recipe R4); 82.7 nm in data set [1] (formulation recipe R7); 78.9 nm in data set [1] (formulation recipe R8). Also, the “Total Flux (luciferase expression)” value in the data set on firefly luciferase (formulation recipe D22) worked out at 4.01E+09 p/s; in the data set on firefly luciferase (formulation recipe R3), 5.39E+08 p/s; in the data set with firefly luciferase (formulation recipe R4), 5.47E+08 p/s; with firefly luciferase (formulation recipe R7) it was 1.09E+09 p/s; with firefly luciferase (formulation recipe R8), 5.73E+08 p/s. For the same compound, in the data set on firefly luciferase, the “Total Flux” value is listed as 4.01E+09 p/s.

Regarding `CCCCCCCCCC(=O)OCCN(CC(=O)N(CCOC(=O)CCCCCCCCC)CC(=O)N(CCSSCC(CC)CCCC)CC(=O)N(CCOC(=O)CCCCCCCCC)CC(=O)N(CCOC(=O)CCCCCCCCC)CC(=O)N(CCSSCC(CC)CCCC)CC(N)=O)C(=O)CNC(CO)CO` (stereo not drawn) [Compound 135] (H-[N(CH(CH2OH)2)Gly][N(2-decanoyloxyethyl)Gly][N(2-decanoyloxyethyl)Gly][X1][N(2-decanoyloxyethyl)Gly][N(2-decanoyloxyethyl)Gly][X1]-NH2), the “mean percent encapsulation of RNA” value with mRNA worked out at 91.4%. Besides, in the data set with luciferase, the “IM Flux” value was found to be 3.49E+08 p/s and the “SC Flux” value was 5.56E+08 p/s. Besides, in data set [1] (setting [2]), the PDI is 0.158 and the “Particle Size” value is recorded as 59.2 nm. For the same compound, the “Total Flux” value in the data set on firefly luciferase is recorded as 8.92E+08 p/s.

(Values after US20260373248A1, “DEGRADABLE PEPTOIDS” (Medici Therapeutics, Inc., priority 2023, published 2026).)
